Tests used:
[1] = 298.15 K, 101 kPa, Liquid; for speed of sound: Sing-around technique in a fixed-path interferometer
[2] = mn = molality of the nth substance listed, in mol/kg; details: 298.15 K, 101 kPa, Liquid; for speed of sound: Sing-around technique in a fixed-path interferometer

OCCO [1,2-ethanediol]
[1]
Details | mass density [kg/m3] | speed of sound [m/s]
– | 1109.41 | 1656.1

OCCO [1,2-ethanediol] + O
[2]
Details | mass density [kg/m3] | speed of sound [m/s]
m2 = 0 | 1109.41 | 1656.1
m2 = 0.1028 | 1109.35 | 1656.9
m2 = 0.2175 | 1109.25 | 1657.7
m2 = 0.3155 | 1109.22 | 1658.6
m2 = 0.3759 | 1109.06 | 1658.7
m2 = 0.7031 | 1108.82 | 1660.5
m2 = 0.808 | 1108.62 | 1661.4
m2 = 0.9282 | 1108.2 | 1661.8
m2 = 1.035 | 1108.14 | 1662.3
m2 = 1.132 | 1108.1 | 1662.7

CC(O)CO (stereo not given) [1,2-propanediol]
[1]
Details | mass density [kg/m3] | speed of sound [m/s]
– | 1032.87 | 1510.6

CC(O)CO (stereo not given) [1,2-propanediol] + O
[2]
Details | mass density [kg/m3] | speed of sound [m/s]
m2 = 0 | 1032.87 | 1510.6
m2 = 0.2187 | 1033.12 | 1512.9
m2 = 0.5592 | 1033.53 | 1516.4
m2 = 0.6141 | 1033.58 | 1516.5
m2 = 0.7341 | 1033.67 | 1517.5
m2 = 0.8421 | 1033.73 | 1519.4
m2 = 0.9215 | 1033.86 | 1519.9
m2 = 1.023 | 1033.94 | 1521.5

CC1COC(=O)O1 (stereo not given) [4-methyl-1,3-dioxolan-2-one]
[1]
Details | mass density [kg/m3] | speed of sound [m/s]
– | 1198.64 | 1443.4

CC1COC(=O)O1 (stereo not given) [4-methyl-1,3-dioxolan-2-one] + O
[2]
Details | mass density [kg/m3] | speed of sound [m/s]
m2 = 0 | 1198.64 | 1443.4
m2 = 0.2538 | 1197.46 | 1444.9
m2 = 0.2969 | 1197.24 | 1445.2
m2 = 0.3438 | 1196.97 | 1445.4
m2 = 0.3895 | 1196.74 | 1445.6
m2 = 0.4879 | 1196.22 | 1446
m2 = 0.5765 | 1195.77 | 1446.6
m2 = 0.6743 | 1195.27 | 1447.2
m2 = 0.7678 | 1194.8 | 1447.6

Source: the NIST ThermoML archive (doi:10.1016/j.jct.2007.05.010)
